One test relates to HCT-116. The test can be described thus: Cancer cytotoxicity assay (Real-Time-Glo cell viability), HCT-116. The format is cell-based. The settings on record: Homo sapiens, colorectal cancer cell line, 72 hr. How it is done:
(§1) The cytotoxicity of Compounds 1, 3, 4, 6, 7, 8, 9, 10, 12 and 13 against cancer cell lines was determined. To determine the optimal plating density for cell viability assays, for each cell line, cells were counted and diluted to final densities of 2.5, 5, 10 and 20 thousand per 100 μL of their respective growth media per well in 96 well plates. The Promega Real-Time-Glo cell viability kit was used to determine the optimal concentration for cell plating so that each cell line would be within the linear part of its growth curve after 72 hrs in culture. For the determination of test compound IC50s, different cancer cell lines were plated in 96 well plates in the pre-determined optimal density for each cell line. Test compounds were then added at different concentrations for the creation of six-point curve and cell density was determined using the Promega Real-Time-Glo cell viability kit after 24, 48, and 72 hrs in culture.

A further test deals with T1, FLT3 (Homo sapiens, UniProt P36888).
T1 construct: purchased Eurofins DiscoverX (contract service)
T1 sequence (P36888 27-993): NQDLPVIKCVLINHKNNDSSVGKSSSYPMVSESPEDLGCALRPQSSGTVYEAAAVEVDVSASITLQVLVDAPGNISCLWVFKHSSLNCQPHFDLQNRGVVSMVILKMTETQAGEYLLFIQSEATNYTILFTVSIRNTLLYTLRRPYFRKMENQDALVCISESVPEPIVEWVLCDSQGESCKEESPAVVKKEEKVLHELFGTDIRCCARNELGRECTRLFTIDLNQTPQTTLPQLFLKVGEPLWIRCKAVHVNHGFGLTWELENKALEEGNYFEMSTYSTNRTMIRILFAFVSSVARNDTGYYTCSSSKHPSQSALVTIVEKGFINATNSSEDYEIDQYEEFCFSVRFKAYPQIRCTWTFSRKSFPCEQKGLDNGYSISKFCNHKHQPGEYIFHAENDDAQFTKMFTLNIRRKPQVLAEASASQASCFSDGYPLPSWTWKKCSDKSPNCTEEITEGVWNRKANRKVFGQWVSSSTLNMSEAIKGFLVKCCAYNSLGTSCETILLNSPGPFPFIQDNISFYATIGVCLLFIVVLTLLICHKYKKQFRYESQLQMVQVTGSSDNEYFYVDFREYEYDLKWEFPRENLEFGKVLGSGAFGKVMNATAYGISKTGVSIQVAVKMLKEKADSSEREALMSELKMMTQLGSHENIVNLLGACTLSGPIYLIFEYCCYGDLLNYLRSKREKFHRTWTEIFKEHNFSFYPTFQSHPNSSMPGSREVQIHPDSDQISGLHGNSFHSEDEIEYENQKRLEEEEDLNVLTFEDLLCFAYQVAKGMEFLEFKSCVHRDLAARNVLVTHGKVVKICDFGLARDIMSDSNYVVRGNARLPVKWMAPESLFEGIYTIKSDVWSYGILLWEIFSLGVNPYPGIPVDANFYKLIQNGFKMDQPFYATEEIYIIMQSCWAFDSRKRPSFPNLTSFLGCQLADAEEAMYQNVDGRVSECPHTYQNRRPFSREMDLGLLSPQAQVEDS
Briefly: Kinase assay (Eurofins DiscoverX KinaseProfiler / KdElect), FLT3. The format is binding. To be noted: read-out: FLT3 (Kd50 nM). How it is done: Stock solutions of the compounds being evaluated were prepared. The IC50 values were determined by the Eurofins DiscoverX services using either the KinaseProfiler or the KdElect kinase activity detection assays.

Another test deals with A-498. The test can be described thus: Cancer cytotoxicity assay (Real-Time-Glo cell viability), A-498. In kind it is cell-based. To be noted: Homo sapiens, A498; kidney cancer, 72 hr. How it is done: as §1
The subject of the next test is Kasumi-1. Briefly: Cancer cytotoxicity assay (Real-Time-Glo cell viability), Kasumi-1. In kind it is cell-based. To be noted: Homo sapiens, leukemia cell, 72 hr. How it is done: as §1
For another test, the target named is T2, PLK4 (Homo sapiens, UniProt O00444).
T2 construct: purchased Eurofins DiscoverX (contract service)
T2 sequence (O00444 1-970): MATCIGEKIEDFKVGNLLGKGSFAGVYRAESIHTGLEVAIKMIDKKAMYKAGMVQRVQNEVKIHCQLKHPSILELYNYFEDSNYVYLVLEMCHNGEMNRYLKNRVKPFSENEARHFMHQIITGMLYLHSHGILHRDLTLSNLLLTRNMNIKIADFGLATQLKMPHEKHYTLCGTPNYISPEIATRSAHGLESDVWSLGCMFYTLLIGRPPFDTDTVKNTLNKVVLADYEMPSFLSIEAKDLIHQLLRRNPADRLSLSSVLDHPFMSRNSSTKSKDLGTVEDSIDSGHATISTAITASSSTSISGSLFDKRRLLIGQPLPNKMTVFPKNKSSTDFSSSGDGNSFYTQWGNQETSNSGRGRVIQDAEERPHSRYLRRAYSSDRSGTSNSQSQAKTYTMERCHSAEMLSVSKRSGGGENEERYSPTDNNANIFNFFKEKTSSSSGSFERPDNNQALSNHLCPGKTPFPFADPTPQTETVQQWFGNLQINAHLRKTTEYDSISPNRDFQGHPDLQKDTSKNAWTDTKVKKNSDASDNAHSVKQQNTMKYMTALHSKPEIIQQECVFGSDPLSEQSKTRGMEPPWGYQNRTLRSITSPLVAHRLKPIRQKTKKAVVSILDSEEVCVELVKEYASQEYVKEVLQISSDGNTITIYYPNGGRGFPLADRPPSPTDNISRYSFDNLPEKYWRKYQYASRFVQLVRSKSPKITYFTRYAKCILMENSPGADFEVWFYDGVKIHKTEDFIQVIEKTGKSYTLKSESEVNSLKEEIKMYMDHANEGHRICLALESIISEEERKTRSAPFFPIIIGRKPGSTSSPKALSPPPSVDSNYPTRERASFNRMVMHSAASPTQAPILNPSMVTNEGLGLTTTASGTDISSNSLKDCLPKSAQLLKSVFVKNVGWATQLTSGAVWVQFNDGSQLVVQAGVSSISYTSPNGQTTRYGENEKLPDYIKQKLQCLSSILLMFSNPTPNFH
The test can be described thus: Kinase inhibition assay (Eurofins DiscoverX KinaseProfiler / KdElect), PLK4. In kind it is biochemical. How it is done: (§2) The activity of Compounds 1, 3, 4, 6, 7, 8, 9, 10 and 13 in inhibiting CLK1, CLK4, PLK4, and FLT3 kinases was determined. Stock solutions of the compounds being evaluated were prepared. The IC50 values were determined by the Eurofins DiscoverX services using either the KinaseProfiler or the KdElect kinase activity detection assays.

The next test deals with 786-O. The test can be described thus: Cancer cytotoxicity assay (Real-Time-Glo cell viability), 786-O. The format is cell-based. To be noted: Homo sapiens, 786-0; kidney cancer, 72 hr. How it is done: as §1
A further test concerns the target T3, CLK4 (Homo sapiens, UniProt Q9HAZ1).
T3 construct: purchased Eurofins DiscoverX (contract service)
The test can be described thus: Kinase inhibition assay (Eurofins DiscoverX KinaseProfiler / KdElect), CLK4. The format is biochemical. How it is done: as §2

In a further test the test system is HT-29. The test can be described thus: Cancer cytotoxicity assay (Real-Time-Glo cell viability), HT-29. In kind it is cell-based. The settings on record: Homo sapiens, colorectal cancer cell line, 72 hr. How it is done: as §1
A further test deals with T4, CLK1 (Homo sapiens, UniProt P49759).
T4 construct: purchased Eurofins DiscoverX (contract service)
T4 sequence (P49759 whole entry): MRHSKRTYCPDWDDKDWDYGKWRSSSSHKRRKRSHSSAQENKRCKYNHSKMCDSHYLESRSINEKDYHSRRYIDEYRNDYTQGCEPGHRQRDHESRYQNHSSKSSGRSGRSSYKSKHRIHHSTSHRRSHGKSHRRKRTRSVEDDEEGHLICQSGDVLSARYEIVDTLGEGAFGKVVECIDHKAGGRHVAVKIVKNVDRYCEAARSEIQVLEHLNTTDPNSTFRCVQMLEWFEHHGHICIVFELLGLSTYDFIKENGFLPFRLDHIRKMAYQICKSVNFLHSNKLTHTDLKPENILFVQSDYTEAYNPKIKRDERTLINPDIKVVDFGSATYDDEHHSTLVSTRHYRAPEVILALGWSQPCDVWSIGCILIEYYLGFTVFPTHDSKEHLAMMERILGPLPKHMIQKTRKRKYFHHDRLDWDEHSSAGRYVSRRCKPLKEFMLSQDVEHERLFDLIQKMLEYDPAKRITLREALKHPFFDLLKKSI
The test can be described thus: Kinase inhibition assay (Eurofins DiscoverX KinaseProfiler / KdElect), CLK1. In kind it is biochemical. How it is done:
as §2

In the next test the test system is SKOV-3. Briefly: Cancer cytotoxicity assay (Real-Time-Glo cell viability), SKOV-3. The format is cell-based. To be noted: Homo sapiens, SK-OV-3; ovarian cancer cell line, 72 hr. How it is done:
as §1

The subject of a further test is HT-29 cells. The test can be described thus: Reduction of colorectal tumor mass, HT-29 xenograft in nude mice. The format is in vivo, Male nude mice. The settings on record: 5 mg/kg I.P. every 48 h. How it is done: Male nude mice ages 6-8 weeks (NU/J. Jackson Laboratories) received rear, hind leg flank subcutaneous injections of 5×10^6 HT-29 cells diluted 1:1 in matrigel-cell culture media. Mice were then monitored daily until tumor nodules reached 100-200 mm^3 upon which point they were randomized into treatment groups based on their weight and tumor size and treatment. Mice (10 mice per group) were injected I.P. every 48 h with 100 μL of either vehicle control or Compound 8 (5 mg/kg). Tumor nodules were then monitored every 48 h for up to 28 days with tumor volumes calculated using the equation V=(L*W2)/2 where L is length and W is width of a tumor. Differences in xenograft volumes between the different groups were analyzed by single factor analysis of variance of the log-transformed tumor volume data. Mice with tumors that exceed 1000 mm^3 were euthanized to avoid excessive suffering.

For the next test, the system named is MV4-11. Briefly: Cancer cytotoxicity assay (Real-Time-Glo cell viability), MV4-11. In kind it is cell-based. The settings on record: Homo sapiens, leukemia cell, 72 hr. How it is done:
as §1

A further test relates to Kasumi-3. Briefly: Cancer cytotoxicity assay (Real-Time-Glo cell viability), Kasumi-3. The format is cell-based. The settings on record: leukemia cell, 72 hr. How it is done: as §1
The subject of a further test is OV-90. Briefly: Cancer cytotoxicity assay (Real-Time-Glo cell viability), OV-90. The format is cell-based. To be noted: Homo sapiens, ovarian cancer cell line, 72 hr. How it is done:
as §1

In general, IC50 refers to the concentration that inhibits the measured activity by half. Low readings indicate inhibition by little substance, high ones a need for much substance.

T3 sequence (Q9HAZ1 whole entry): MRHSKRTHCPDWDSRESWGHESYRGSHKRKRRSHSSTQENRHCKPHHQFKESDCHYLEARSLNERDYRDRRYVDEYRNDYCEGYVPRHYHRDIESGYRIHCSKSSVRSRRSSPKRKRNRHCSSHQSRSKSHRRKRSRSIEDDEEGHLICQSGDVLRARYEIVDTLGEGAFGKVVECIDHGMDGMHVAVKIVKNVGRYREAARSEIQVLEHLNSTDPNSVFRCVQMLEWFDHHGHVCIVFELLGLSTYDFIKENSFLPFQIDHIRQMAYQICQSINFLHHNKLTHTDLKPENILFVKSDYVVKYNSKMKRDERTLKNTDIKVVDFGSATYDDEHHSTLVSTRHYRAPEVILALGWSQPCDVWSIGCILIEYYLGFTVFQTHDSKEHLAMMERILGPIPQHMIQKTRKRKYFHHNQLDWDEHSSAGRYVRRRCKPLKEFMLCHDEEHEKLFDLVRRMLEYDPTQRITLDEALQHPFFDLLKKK

Take `CCc1cc(Nc2nc(N3CCC(F)(F)CC3)nc3cc(OCCCN4CCCC4)c(OC)cc23)n[nH]1` [Compound 8, 2-(4,4-difluoropiperidin-1-yl)-N-(5-ethyl-1H-pyrazol-3-yl)-6-methoxy-7-(3-(pyrrolidin-1-yl)propoxy)quinazolin-4-amine]: the IC50 with HCT-116 was 1000 to 5000 nM; in the test on A-498 it was 1000 to 5000 nM; in the test with Kasumi-1, 1000 to 5000 nM; at PLK4, less than 1000 nM; in the test with 786-O it was 1000 to 5000 nM; against CLK4 it was less than 1000 nM. For the same compound, the IC50 in the test with HT-29 is 1000 to 5000 nM; on CLK1, less than 1000 nM; in the test on SKOV-3 it was 1000 to 5000 nM; with MV4-11 it was less than 1000 nM; with Kasumi-3 it was 1000 to 5000 nM; in the test on OV-90, 1000 to 5000 nM. In addition, the Kd at FLT3 was less than 1 µM. Further, the “tumor growth compared to vehicle control (FIG. 3A)” value with HT-29 cells (16 day study) is on record as “significantly slower tumor growth”. Besides, in the test on HT-29 cells (day 16), the “tumors on day 16 compared to vehicle” value was “significantly smaller tumors”. The “increase of tumor (FIG. 3B, tumor mass)” value with HT-29 cells (vehicle 600%) is 370%.

With `COc1cc2c(Nc3cc(C)[nH]n3)nc(N3CCCC3)nc2cc1OCCCN1CCCC1` [Compound 1, 6-Methoxy-N-(5-methyl-1H-pyrazol-3-yl)-2-(pyrrolidin-1-yl)-7-(3-(pyrrolidin-1-yl)propoxy)quinazolin-4-amine], the IC50 in the test with HCT-116 was 1000 to 5000 nM; in the test on A-498 it was 1000 to 5000 nM; with Kasumi-1, 1000 to 5000 nM; against PLK4 it was greater than 10000 nM; with 786-O, 5000 to 10000 nM; at CLK4, 5000 to 10000 nM. Moreover, the IC50 was 5000 to 10000 nM in the test with HT-29; less than 1000 nM against CLK1; 1000 to 5000 nM with SKOV-3; less than 1000 nM in the test with MV4-11; 5000 to 10000 nM in the test on Kasumi-3; 1000 to 5000 nM with OV-90. The Kd on FLT3 was greater than 10 µM. The kinase selectivity entry on CLK1 (among CLK1, CLK4, PLK4, FLT3) is listed as “selective CLK1/4 inhibitor”.

On to `COc1cc2c(Nc3cc(C)[nH]n3)nc(N3CCC3)nc2cc1OCCCN1CCCC1` [Compound 4, 2-(Azetidin-1-yl)-6-methoxy-N-(5-methyl-1H-pyrazol-3-yl)-7-(3-(pyrrolidin-1-yl)propoxy)quinazolin-4-amine], for which the concentration for half-maximal inhibition (IC50) in the test with HCT-116 was 1000 to 5000 nM; with A-498 it was greater than 10000 nM; with Kasumi-1, greater than 10000 nM; on PLK4, greater than 10000 nM; with 786-O, greater than 10000 nM; against CLK4, 5000 to 10000 nM. Moreover, the IC50 with HT-29 was greater than 10000 nM; at CLK1 it was 1000 to 5000 nM; in the test with SKOV-3, greater than 10000 nM; with MV4-11, 5000 to 10000 nM; in the test with Kasumi-3, greater than 10000 nM; with OV-90, greater than 10000 nM. Also, at FLT3, the Kd is 5 to 10 µM.

Source of the values: US20240199597A1, “SMALL MOLECULES FOR THE TREATMENT OF KINASE-RELATED DISEASES” (Athos Therapeutics, Inc., priority 2021, published 2024).
